Laboratory results from PubChem BioAssay (NCI).
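A five-concentration, 48-hour dose response in 96-well plates underlies each endpoint, interpolated linearly between surrounding concentrations. TGI: concentration producing complete growth inhibition.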

Experiments:
Experiment in all cases: NCI anticancer screen, dose series, 48 h
[1] = tested on: HT29 colon
[2] = tested on: TK-10 renal
[3] = tested on: T-47D breast
[4] = tested on: HOP-62 NSCLC
[5] = tested on: A498 renal
[6] = tested on: MALME-3M melanoma
[7] = tested on: XF 498 CNS
[8] = tested on: NCI-H522 lung
[9] = tested on: OVCAR-8 ovarian
[10] = tested on: NCI-H460 lung
[11] = tested on: SNB-75 CNS
[12] = tested on: U251 CNS
[13] = tested on: BT-549 breast
[14] = tested on: MCF7 breast
[15] = tested on: UO-31 renal
[16] = tested on: EKVX NSCLC
[17] = tested on: 786-0 renal
[18] = tested on: HS 578T breast
[19] = tested on: CCRF-CEM leukemia
[20] = tested on: IGROV1 ovarian

Measured: TGI

COC(=O)N/N=C(/c1nc2ccc([N+](=O)[O-])cc2[nH]c1=O)C(O)c1ccc(OC)c(OC)c1 (stereo not given)
> 100 µM: all assays above
